Laboratory results from paper PMC5318439, “The Novel Toll-Like Receptor 2 Agonist SUP3 Enhances Antigen Presentation and T Cell Activation by Dendritic Cells” (Frontiers in Immunology, 2017).
Where a SMILES comes first, the peptide text is derived from it. The star is where a group is joined. X1 = CCCCCCCCCCCCCCNC(=O)OC[C@H](C*)OC(=O)NCCCCCCCCCCCCCC; Palmitoyl = CCCCCCCCCCCCCCCC(=O)*

Tests used:
[1] = system: OVA-specific CD8^+ T cells; assay: OCS immunization, OVA-specific CD8+ T cells (CTL induction) in spleen; format: in vivo, C57BL/6 mice; conditions: 10 nmol, data not shown; for CTL induction at high dose: OCS immunization; for spleen size at high dose: mice
Method: Splenocytes were X-ray irradiated (1500 Rad) and then coated with OVA (1 mg per spleen) in RPMI 1640 medium (Gibco 11875-119) for 30 min at 37°C. Cells were washed twice with RPMI 1640 medium. […] Seven days post-immunization, OVA-specific CD8^+ T cells in spleen were analyzed by flow cytometry by staining with fluorescence-conjugated antibodies against CD19 (eBioscinece, clone 1D3), CD3 (eBioscinece, clone 145-2C11), CD8 (eBioscinece, clone 53-6.7), and SIINFEKL/H-2Kb-Pentamer (ProImmune F093-4A).
Figure 2 SUP3 induced more vigorous cytotoxic T lymphocytes (CTLs) responses than Pam3CSK4 without excessive production of inflammatory cytokines in vivo. […] The percentages of pentamer positive cells (CD19^− CD3^+ CD8^+ SIINFEKL/H-2Kb-Pentamer^+) in spleens, i.e., the OVA-specific CD8^+ T cells, were determined by flow cytometry (A) and the statistic calculation is presented in (B). Representative data from three independent experiments with three mice in each group were presented. (C,D) Mice were immunized as in (A) for 30 days, then inoculated with OVA-expressing B16 melanoma cells (B16-OVA) (5 × 10^5 cells per mouse) by i.v. injection and analyzed for metastatic tumor formation in the lung 16 days after inoculation. Data from two independent experiments with three mice in each group were shown. […] “n.d.” indicates “not detected.” *p < 0.05, **p < 0.01. TEXT PRINTED IN THE PICTURE: (A) Pam3: Pentamer^+ (% of CD8^+ T): 1.57 (OCS) | (A) SUP3: Pentamer^+ (% of CD8^+ T): 2.98 (OCS) | (E) Pam3: IL-12p40 (ng/mL): n.d | (E) SUP3: IL-12p40 (ng/mL): n.d DOUBTS OF THE COPYIST ABOUT THIS PICTURE: Panel A also prints 0.37 for the control Non and 0.72 for the vehicle control PBS (OCS). Both are left out because they are controls, not test substances. / Panel E prints n.d for the vehicle control PBS in all four plots. These are left out for the same reason.

Tlr2^−/− RAW 264.7 cells = assay: TNFα production by Tlr2−/− RAW 264.7 cells (TLR2 specificity); format: cell-based; conditions: 500 nM, 8 h
Method: Tlr2^−/− RAW 264.7 cells were generated by lentiviral CRISPR-Cas9 system as described previously ([36]). Briefly, target guide sequences (5′-[…]-3′, 3′-[…]-5′) designed by Genome Engineering 3.0 were ligated into lentiviral vector lentiCRISPR (Addgene 52961). Then lentiCRISPR as well as packaging plasmids pMD2.G (Addgene 12259) and psPax2 (Addgene 12260) were co-transfected into 293FT cells by CaCl2 (12.5 mM) for virus packaging. Fresh cell culture medium was changed 12 h post-transfection. After another 72 h, 293FT cell culture supernatant containing virus was harvested, filtered, and concentrated. Then, RAW 264.7 cells were infected by the virus (~5 × 10^5 TU/mL) with the presence of 8 µg/mL polybrene (Sigma H9268). […]
Splenic DCs (5 × 10^5 cells/mL) were stimulated by Pam3 (200 nM), SUP3 (200 nM), or CpG ODN 1668 (20 nM; Adipogen IAX-200-001) in the GM-CSF (20 ng/mL) supplemented medium for indicated periods. […] Cytokines (IL-6, eBioscience 88-7064; TNFα, eBioscience 88-7324; IL-12p40, BioLegend 431604), chemokine (MIP1α, R&D Systems DY450-05), and total IgM (eBioscience, 88-50470) were quantified by ELISA kits following the instructions of manufacturers.
Figure 1 Specificity and activity of novel TLR2 agonist SUP3. […] The production of cytokines IL-6 and TNFα in culture supernatant was determined by ELISA. *p < 0.05, ****p < 0.0001, “n.s.” indicates statistically non-significant.

CCCCCCCCCCCCCCCC(=O)N[C@@H](CSC[C@@H](COC(=O)NCCCCCCCCCCCCCC)OC(=O)NCCCCCCCCCCCCCC)C(=O)NCC(=O)N[C@@H](CCCCN)C(=O)N[C@@H](CCCCN)C(=O)N[C@@H](CCCCN)C(=O)O [SUP3, (2S,5S,8S,14R,18R)-2,5,8-tris(4-aminobutyl)-4,7,10,13,21-pentaoxo-14-palmitamido-18-((tetradecylcarbamoyl)oxy)-20-oxa-16-thia-3,6,9,12,22-pentaazahexatriacontan-1-oic acid] (Palmitoyl-C(X1)GKKK-OH)
CTL induction at high dose [1]: decreased CTL induction
spleen size at high dose [1]: enlarged spleens
TNFα secretion by Tlr2−/− RAW cells (Tlr2^−/− RAW 264.7 cells): no secretion of TNFα

Pam3CSK4 [reference compound]
CTL induction at high dose [1]: did not have the same effect
spleen size at high dose [1]: did not have the same effect
TNFα secretion by Tlr2−/− RAW cells (Tlr2^−/− RAW 264.7 cells): no secretion of TNFα
